Reference: patent publication US9889113B2, “Method for reversing, preventing, delaying or stabilizing soft tissue calcification” (Panion & BF Biotech, Inc., priority 2006, dated 2018)

Columns and labels:
[1] = tested on: patients with end stage renal disease (ESRD); assay: Treatment-emergent adverse events in the dose-ranging study; format: in vivo, human
Excerpt: Objectives: (1) To determine the effect of ferric citrate at doses of 2, 4 and 6 g daily, administered TID (three times a day), for 28 days on serum phosphate (PO4) levels in patients with end stage renal disease (ESRD). (2) To evaluate the safety of ferric citrate at doses of 2, 4, 6 g daily, administered TID, for 28 days in patients with ESRD.
Study Design: Randomized, double-blind, placebo-controlled, dose-ranging study to assess the effect of ferric citrate on serum phosphate concentrations in patients with ESRD on hemodialysis. Patients are assessed at Study Days 14 and 28 for effectiveness as measured by serum phosphate concentrations. Patients who received one or more doses of study medication are also assessed for safety.

[2] = tested on: patients with end stage renal disease (ESRD); assay: Serum creatinine level in the open-label extension of the Phase II study; format: in vivo, human; conditions: several patients who received 6 g/day
Excerpt: Glomerular filtration rate (GFR) level correlates with structural kidney damage and is used as a golden standard to measure kidney function. GFR can be estimated by the biomarkers serum creatinine. As renal function deteriorates, kidney lost its function to excrete creatinine effectively and lead to creatinine retention in the body. Therefore, increase of serum creatinine indicates lowering GFR and is an important sign of kidney deterioration.
In an open-label extension of a Phase II clinical study: “randomized, double-blind, placebo-controlled, dose-ranging study of the effects of ferric citrate on serum phosphate in patients with end stage renal disease (ESRD)”, some of the patients were administered 2-6 g/day of ferric citrate and serum creatinine level was monitored to assess kidney function.

O=C([O-])CC(O)(CC(=O)[O-])C(=O)[O-].[Fe+3] [ferric citrate]
Abdominal Pain (Preferred Term): # Event ([1]; 2 g/day (N = 33)): 0
Abdominal Pain (Preferred Term): (%) ([1]; 2 g/day (N = 33)): (0.0) %
Diarrhea (Preferred Term): # Event ([1]; 2 g/day (N = 33)): 3
Diarrhea (Preferred Term): (%) ([1]; 2 g/day (N = 33)): (9.1) %
GI Disorder, Definitely (relationship): # Event ([1]; 2 g/day (N = 33)): 0
GI Disorder, Definitely (relationship): (%) ([1]; 2 g/day (N = 33)): (0.0) %
GI Disorder, Possibly (relationship): # Event ([1]; 2 g/day (N = 33)): 3
GI Disorder, Possibly (relationship): (%) ([1]; 2 g/day (N = 33)): (9.1) %
GI Disorder, Probably (relationship): # Event ([1]; 2 g/day (N = 33)): 2
GI Disorder, Probably (relationship): (%) ([1]; 2 g/day (N = 33)): (6.1) %
GI Disorders (System Organ Class): # Event ([1]; 2 g/day (N = 33)): 8
GI Disorders (System Organ Class): (%) ([1]; 2 g/day (N = 33)): (24.2) %
GI Disorders, Mild (severity): # Event ([1]; 2 g/day (N = 33)): 6
GI Disorders, Mild (severity): (%) ([1]; 2 g/day (N = 33)): (18.2) %
General Disorders (System Organ Class): # Event ([1]; 2 g/day (N = 33)): 4
General Disorders (System Organ Class): (%) ([1]; 2 g/day (N = 33)): (12.1) %
Infections and Infestations (System Organ Class): # Event ([1]; 2 g/day (N = 33)): 0
Infections and Infestations (System Organ Class): (%) ([1]; 2 g/day (N = 33)): (0.0) %
Skin and SC Tissue Disorders (System Organ Class): # Event ([1]; 2 g/day (N = 33)): 3
Skin and SC Tissue Disorders (System Organ Class): (%) ([1]; 2 g/day (N = 33)): (9.1) %
T#at1AE, Definitely (relationship): # Event ([1]; 2 g/day (N = 33)): 0
T#at1AE, Definitely (relationship): (%) ([1]; 2 g/day (N = 33)): (0.0) %
T#at1AE, Mild (severity): # Event ([1]; 2 g/day (N = 33)): 13
T#at1AE, Mild (severity): (%) ([1]; 2 g/day (N = 33)): (39.4) %
T#at1AE, Moderate (severity): # Event ([1]; 2 g/day (N = 33)): 6
T#at1AE, Moderate (severity): (%) ([1]; 2 g/day (N = 33)): (18.2) %
T#at1AE, Possibly (relationship): # Event ([1]; 2 g/day (N = 33)): 5
T#at1AE, Possibly (relationship): (%) ([1]; 2 g/day (N = 33)): (15.2) %
T#at1AE, Probably (relationship): # Event ([1]; 2 g/day (N = 33)): 2
T#at1AE, Probably (relationship): (%) ([1]; 2 g/day (N = 33)): (6.1) %
T#at1AE, Severe (severity): # Event ([1]; 2 g/day (N = 33)): 0
T#at1AE, Severe (severity): (%) ([1]; 2 g/day (N = 33)): (0.0) %
Total number of subjects with at least one adverse event (T#at1AE): # Event ([1]; 2 g/day (N = 33)): 16
Total number of subjects with at least one adverse event (T#at1AE): (%) ([1]; 2 g/day (N = 33)): (48.5) %
Abdominal Pain (Preferred Term): # Event ([1]; 4 g/day (N = 34)): 4
Abdominal Pain (Preferred Term): (%) ([1]; 4 g/day (N = 34)): (11.8) %
Diarrhea (Preferred Term): # Event ([1]; 4 g/day (N = 34)): 1
Diarrhea (Preferred Term): (%) ([1]; 4 g/day (N = 34)): (2.9) %
GI Disorder, Definitely (relationship): # Event ([1]; 4 g/day (N = 34)): 0
GI Disorder, Definitely (relationship): (%) ([1]; 4 g/day (N = 34)): (0.0) %
GI Disorder, Possibly (relationship): # Event ([1]; 4 g/day (N = 34)): 6
GI Disorder, Possibly (relationship): (%) ([1]; 4 g/day (N = 34)): (17.6) %
GI Disorder, Probably (relationship): # Event ([1]; 4 g/day (N = 34)): 2
GI Disorder, Probably (relationship): (%) ([1]; 4 g/day (N = 34)): (5.9) %
GI Disorders (System Organ Class): # Event ([1]; 4 g/day (N = 34)): 10
GI Disorders (System Organ Class): (%) ([1]; 4 g/day (N = 34)): (29.4) %
GI Disorders, Mild (severity): # Event ([1]; 4 g/day (N = 34)): 8
GI Disorders, Mild (severity): (%) ([1]; 4 g/day (N = 34)): (23.5) %
General Disorders (System Organ Class): # Event ([1]; 4 g/day (N = 34)): 2
General Disorders (System Organ Class): (%) ([1]; 4 g/day (N = 34)): (5.9) %
Infections and Infestations (System Organ Class): # Event ([1]; 4 g/day (N = 34)): 3
Infections and Infestations (System Organ Class): (%) ([1]; 4 g/day (N = 34)): (8.8) %
Skin and SC Tissue Disorders (System Organ Class): # Event ([1]; 4 g/day (N = 34)): 0
Skin and SC Tissue Disorders (System Organ Class): (%) ([1]; 4 g/day (N = 34)): (0.0) %
T#at1AE, Definitely (relationship): # Event ([1]; 4 g/day (N = 34)): 0
T#at1AE, Definitely (relationship): (%) ([1]; 4 g/day (N = 34)): (0.0) %
T#at1AE, Mild (severity): # Event ([1]; 4 g/day (N = 34)): 9
T#at1AE, Mild (severity): (%) ([1]; 4 g/day (N = 34)): (26.5) %
T#at1AE, Moderate (severity): # Event ([1]; 4 g/day (N = 34)): 3
T#at1AE, Moderate (severity): (%) ([1]; 4 g/day (N = 34)): (8.8) %
T#at1AE, Possibly (relationship): # Event ([1]; 4 g/day (N = 34)): 6
T#at1AE, Possibly (relationship): (%) ([1]; 4 g/day (N = 34)): (17.6) %
T#at1AE, Probably (relationship): # Event ([1]; 4 g/day (N = 34)): 2
T#at1AE, Probably (relationship): (%) ([1]; 4 g/day (N = 34)): (5.9) %
T#at1AE, Severe (severity): # Event ([1]; 4 g/day (N = 34)): 2
T#at1AE, Severe (severity): (%) ([1]; 4 g/day (N = 34)): (5.9) %
Total number of subjects with at least one adverse event (T#at1AE): # Event ([1]; 4 g/day (N = 34)): 12
Total number of subjects with at least one adverse event (T#at1AE): (%) ([1]; 4 g/day (N = 34)): (35.3) %
Abdominal Pain (Preferred Term): # Event ([1]; 6 g/day (N = 33)): 2
Abdominal Pain (Preferred Term): (%) ([1]; 6 g/day (N = 33)): (6.1) %
Diarrhea (Preferred Term): # Event ([1]; 6 g/day (N = 33)): 1
Diarrhea (Preferred Term): (%) ([1]; 6 g/day (N = 33)): (3.0) %
GI Disorder, Definitely (relationship): # Event ([1]; 6 g/day (N = 33)): 0
GI Disorder, Definitely (relationship): (%) ([1]; 6 g/day (N = 33)): (0.0) %
GI Disorder, Possibly (relationship): # Event ([1]; 6 g/day (N = 33)): 1
GI Disorder, Possibly (relationship): (%) ([1]; 6 g/day (N = 33)): (3.0) %
GI Disorder, Probably (relationship): # Event ([1]; 6 g/day (N = 33)): 5
GI Disorder, Probably (relationship): (%) ([1]; 6 g/day (N = 33)): (15.2) %
GI Disorders (System Organ Class): # Event ([1]; 6 g/day (N = 33)): 10
GI Disorders (System Organ Class): (%) ([1]; 6 g/day (N = 33)): (30.3) %
GI Disorders, Mild (severity): # Event ([1]; 6 g/day (N = 33)): 9
GI Disorders, Mild (severity): (%) ([1]; 6 g/day (N = 33)): (27.3) %
General Disorders (System Organ Class): # Event ([1]; 6 g/day (N = 33)): 4
General Disorders (System Organ Class): (%) ([1]; 6 g/day (N = 33)): (12.1) %
Infections and Infestations (System Organ Class): # Event ([1]; 6 g/day (N = 33)): 1
Infections and Infestations (System Organ Class): (%) ([1]; 6 g/day (N = 33)): (3.0) %
Skin and SC Tissue Disorders (System Organ Class): # Event ([1]; 6 g/day (N = 33)): 4
Skin and SC Tissue Disorders (System Organ Class): (%) ([1]; 6 g/day (N = 33)): (12.1) %
T#at1AE, Definitely (relationship): # Event ([1]; 6 g/day (N = 33)): 0
T#at1AE, Definitely (relationship): (%) ([1]; 6 g/day (N = 33)): (0.0) %
T#at1AE, Mild (severity): # Event ([1]; 6 g/day (N = 33)): 14
T#at1AE, Mild (severity): (%) ([1]; 6 g/day (N = 33)): (42.4) %
T#at1AE, Moderate (severity): # Event ([1]; 6 g/day (N = 33)): 2
T#at1AE, Moderate (severity): (%) ([1]; 6 g/day (N = 33)): (6.1) %
T#at1AE, Possibly (relationship): # Event ([1]; 6 g/day (N = 33)): 2
T#at1AE, Possibly (relationship): (%) ([1]; 6 g/day (N = 33)): (6.1) %
T#at1AE, Probably (relationship): # Event ([1]; 6 g/day (N = 33)): 5
T#at1AE, Probably (relationship): (%) ([1]; 6 g/day (N = 33)): (15.2) %
T#at1AE, Severe (severity): # Event ([1]; 6 g/day (N = 33)): 1
T#at1AE, Severe (severity): (%) ([1]; 6 g/day (N = 33)): (3.0) %
Total number of subjects with at least one adverse event (T#at1AE): # Event ([1]; 6 g/day (N = 33)): 17
Total number of subjects with at least one adverse event (T#at1AE): (%) ([1]; 6 g/day (N = 33)): (51.5) %
side effect ([1]; Phase II study): minimum side effect
serum creatinine level [2]: trend of decreased serum creatinine level
